Data reported in patent US7037489B2, “Skin external agents and drugs” (Kanebo Cosmetics, Inc., priority 1999, dated 2006).
Counter-ions that a name gives are not always drawn.

Legend:
[1] = system: skin of Hartley strain guinea pig; assay: Test 2 safety (sensitization) maximization test; assay type: in vivo; conditions: for Positivity: 3% induction, examined after 48 hours; for sensitizing potential: in words
Experimental: Safety (sensitization) was evaluated by a maximization test. An area of 4×6 cm^2 of skin on the scapula of a Hartley strain guinea pig (female) weighing 350 to 400 g was shaved and given intradermal injections with each three injections in two lines according to the following procedures: • (1)each 0.05 mL of Freunds' Complete Adjuvant (hereinafter simply called FCA) was intradermally injected at each one spot in the right and left sites. • (2) each 0.05 mL of a 3% fumaric acid diester derivative solution in ethanol of as a test sample was intradermally injected at another each one spot in the right and left sites. • (3) to a 6% fumaric acid diester derivative solution in FCA as a test sample, the same amount of sterilized water was added and resultant emulsified solution was intradermally injected at a right side and a left side sites in an amount of 0.05 mL.
At one week after the aforementioned procedures, the skin of the same sites was shaved and 10% of sodium lauryl sulfate in vaseline was applied to cause light inflammation. After 24 hours from the application, 0.2 mL of a 3% fumaric diester derivative solution in ethanol as a test sample, which was applied on a piece of gauze, was patched close on the same sites for 48 hours. On the 21st day after the intradermal injection, the abdominal area was shaved, to which a solution of a fumaric acid diester derivative in ethanolas a test sample, which was applied in a piece of gauze, was patched close for 24 hours. The symptoms in the skin were visually examined according to the following criteria after 48 hours.

[2] = system: hairless mouse dorsal skin (epidermal permeability barrier function disrupted by UVB); assay: Test 1 epidermal permeability barrier function amelioration test (TEWL after UVB); assay type: in vivo, hairless mice (Hos: Hr-1); conditions: for TEWL change rate 3rd day / TEWL change rate 4th day: mean values
Experimental: An effect of improving epidermal permeability barrier function by applying the agents on the skin of which epidermal permeability barrier function has been disrupted was evaluated by the following test method. Male hairless mice (Hos: Hr-1) of 10 weeks old at the beginning of the test were used with each 5 mice per group. Transepidermal water loss (TEWL) was measured as follows using a continuous perspiration measurement device, Hydrograph AMU-100 (ex K & S Co., Ltd.). […] The amount of water vapor in the nitrogen gas was measured before the gas was fed to the capsule and after it was recovered from the capsule. […] The TEWL of the hairless mouse dorsal skin was first measured at the beginning of the test. Subsequently, 0.05 mL of each sample was applied on an area of approximately 2.5 cm diameter in the dorsal skin of the hairless mice once a day from Monday to Friday (pre-application). Then, on the third day from the last day of the pre-application, the skin was irradiated once with ultraviolet B ray (UVB) at a dose of 0.15 J/cm^2. […] TEWL changes with the degree of disruption of the epidermal permeability barrier function. A higher value of TEWL change rate implies a greater degree of disruption of the epidermal permeability barrier function. In the case of the application of the base alone, disruption in the epidermal permeability barrier function by UVB was similar to that in the case of non-application.

HB-EGF mRNA = assay: Test Example 4 HB-EGF expression rate in keratinocytes (Northern blotting); assay type: cell-based, human; conditions: for Amount of mRNA, % relative to the control, HB-EGF: 24 hours, human keratinocytes
Text: (§1) The HB-EGF expression rates were investigated by the following test methods where the compounds of the present invention were applied on the keratinocytes. Cultured keratinocytes of human epidermis origin, commercially available from Kurabo Corporation, were used. Keratinocyte susupension was adjusted to a concentration of 400×10^4 units/mL on an MCDB153 culture medium supplemented with BPE (bovine pituitary extract), insulin, ethanolamine, phosphoethanolamine, and hydrocortisone as growth promotors. Four milliliters of the cell suspension was inoculated to a 60 mm plate (ex Falcon Corporation). […] This plate was subjected to static culturing at 37° C. for 24 hours under an atmosphere consisting of 95% (v/v) air and 5% (v/v) carbon dioxide gas. Using a QIAGEN™ RNA kit, whole mRNA was extracted. […] The amount of each mRNA per total in the absence of the fumarate was measured as the control. The amount of mRNA in the presence of the fumarate was expressed in % relative to those of the control.

G3PDH mRNA [3] = assay: Test Example 4 G3PDH mRNA in keratinocytes (Northern blotting); assay type: cell-based; conditions: 24 hours, human keratinocytes
Text: as §1

[4] = system: dorsal skin of aged hairless mice
Experimental: The following test method was used in order to investigate inhibition of reduction in the epidermis thickness when the compound of the present invention was applied on aged skin.
Experimental animals used included 2 groups of aged hairless mice of 33 weeks old at the beginning of the test with each 5 mice per group, and one group of 5 hairless mice of 9 weeks old at the beginning of the test.
A sample was prepared by adding bis(diethylene glycol monoethyl ether) fumarate to a 50% ethanol aqueous solution (base) at a concentration of 0.5%. This sample was applied in an amount of 0.05 mL on the dorsal skin of hairless mice (in a diameter of approximately 2.5 cm) once a day for consecutive 5 days per week followed by 2 days interval. This schedule was repeated for 4 weeks. Subsequently, a portion of the skin was sampled and a frozen section was prepared. The thickness of the epidermis was measured by microscopic observation.

amphiregulin mRNA [5] = assay: Test Example 6 inhibition of the expression of amphiregulin in keratinocytes; assay type: cell-based; conditions: 24 hours, human keratinocytes
Experimental: (§2) The amount of expression of amphiregulin in the keratinocytes was determined by the following test method. Cultured keratinocytes of human epidermis origin (ex Kurabo Corporation) were used. Keratinocyte suspension was adjusted to a concentration of 150×10^4 units/mL in an MCDB153 culture medium supplemented with BPE (bovine pituitary extract), insulin, ethanolamine, phosphoethanolamine, and hydrocortisone as growth promotors. Four milliliters of the cell suspension was inoculated to a 60 mm plate (ex Falcon Corporation). […] This plate was subjected to static culturing at 37° C. for 24 hours under an atmosphere consisting of 95% (v/v) air and 5% (v/v) carbon dioxide gas. Using a QIAGEN™ RNA kit, whole mRNA was extracted. […] The amount of each mRNA per total in the absence of the fumarate was measured as the control. The amount of mRNA in the presence of the fumarate was expressed in % relative to those of the control. (2) Results

G3PDH mRNA [6] = assay: Test Example 6 G3PDH mRNA in keratinocytes; assay type: cell-based; conditions: 24 hours, human keratinocytes
Experimental: as §2

[7] = system: dorsal skin of hairless mice; assay: Test Example 8 inhibition of dry skin induced by retinoic acid (TEWL); assay type: in vivo
Experimental: The effect of inhibiting dry skin was investigated by the following test method in which the present fumarate was applied to the dry skin induced by retinoic acid. Hairless mice of 10 weeks old at the beginning of the test were used with five mice per group. […] Subsequently, 0.05 mL of a 0.05% retinoic acid solution in 50% ethanol aqueous solution was applied once a day for 4 days. During these 4 days, retinoic acid was applied in the morning, and, some hours later in the afternoon, the sample was applied. […] In Comparative Example 5, a control sample comprising the base alone was used instead of the sample. In Comparative Example 6, the base was always applied. The TEWL values after the application of the samples are as shown below.

[8] = system: dorsal skin of hairless mice; assay: Test Example 9 depression of UV-induced epidermal hyperproliferation; assay type: in vivo; conditions: 0.5% in 50% ethanol, 4 weeks pre-application, UVB 0.15 J/cm^2, 4th day after the irradiation; mean values
Experimental: The inhibition of epidermal hyperproliferation was investigated by the following test method in which the present fumarate was applied to the skin where epidermal hyperproliferation had been induced by UV irradiation Hairless mice of 10 weeks old at the beginning of the test were used with 5 mice per group. […] The animals were slaughtered on the 4th day after the irradiation and skin section were made. From the section, tissue section samples were prepared by HE staining. The samples prepared were photographed using an light microscope. In the microscopic photographs, the thickness of the epidermis was measured. Using the epidermis thickness at the beginning of the test as a standard, the mean values were compared between the control group and the treated groups.

amphiregulin mRNA [9] = assay: Test Example 7 inhibition of amphiregulin expression when used together with retinoic acid; assay type: cell-based, human; conditions: retinoic acid alone 1 μmol/L, 24 hours
Experimental: (§3) The amount of amphireglurin expression in the presence of retinoic acid in the keratinocytes was determined by the following method.
(§4) Cultured keratinocytes of human epidermis origin (ex Kurabo Corporation) were used.
(§5) Keratinocyte suspensions was adjusted to a concentration of 400×10^4 units/mL in an MCDB153 culture medium supplemented with BPE (bovine pituitary extract), insulin, ethanolamine, phosphoethanolamine, and hydrocortisone as growth promotors. Four milliliters of the cell suspension was inoculated to a 60 mm plate (ex Falcon Corporation). Under an atmosphere of 95% (v/v) air and 5% (v/v) carbon dioxide gas, a confluent state was achieved by static culturing at 37° C. for 3 days, while refreshing the culture every other day.
(§6) After removing the culture medium supernatant by suction, the culture medium was replaced with an MCDB 153 culture medium (containing insulin) to which bis(diethylene glycol monoethyl ether) fumarate at a final concentration of 300 μmol/L or dimethyl fumarate at 70 μmol/L, and optionally retinoic acid at 1 μmol/L had been added. This plate was subjected to static culturing at 37° C. for 24 hours under an atmosphere consisting of 95%(v/v) air and 5% (v/v) carbon dioxide gas. Using a QIAGEN™ RNA kit, whole mRNA was extracted.

G3PDH mRNA [10] = assay: Test Example 7 G3PDH mRNA in keratinocytes with retinoic acid; assay type: cell-based, human; conditions: retinoic acid alone 1 μmol/L, 24 hours
Experimental: as §3, §4, §5, §6

[11] = Table 1, concentration 1% in 50% aqueous ethanol, 0.05 mL once a day, 3rd day after UVB 0.15 J/cm^2
[12] = Table 1, concentration 1% in 50% aqueous ethanol, 4th day after UVB 0.15 J/cm^2
[13] = 0.5% sample 5 days pre-application, then 0.05% retinoic acid once a day for 4 days with sample in the afternoon

For COCCOC(=O)/C=C/C(=O)OCCOC [bis(ethylene glycol monomethyl ether) fumarate], the Positivity [1] was 90% and the sensitizing potential [1] was “sensitizating potential”.

With “Diphenylethyl fumarate [reference compound]” the “TEWL change rate 3rd day” value ([2]; Table 1, concentration printed '.1I' %, 3rd day after UVB) was 7.82 and the “TEWL change rate 4th day” value ([2]; Table 1, concentration printed '.1I' %, 4th day after UVB) was 6.57.

With CCOCCOCCOC(=O)/C=C/C(=O)OCCOCCOCC [bis(diethylene glycol monoethyl ether) fumarate] the “TEWL change rate 3rd day” value [2, 11] was 3.25, the “TEWL change rate 4th day” value [2, 12] was 2.49 and the “TEWL change rate 3rd day” value ([2]; Table 2, first value column, concentration 0.001%) was 7.01. For the same compound, the “TEWL change rate 3rd day” value ([2]; Table 2, first value column, concentration 0.01%) was 6.46, the “TEWL change rate 3rd day” value ([2]; Table 2, first value column, concentration 0.1%) was 3.79 and the “TEWL change rate 3rd day” value ([2]; Table 2, first value column, concentration 1%) was 3.62. For the same compound, the “TEWL change rate 3rd day” value ([2]; Table 2, second value column, concentration 0.001%) was 7.31, the “TEWL change rate 3rd day” value ([2]; Table 2, second value column, concentration 0.01%) was 6.84 and the “TEWL change rate 3rd day” value ([2]; Table 2, second value column, concentration 0.1%) was 5.21. For the same compound, the “TEWL change rate 3rd day” value ([2]; Table 2, second value column, concentration 1%) was 4.33, the “amelioration of epidermal permeability barrier function” value ([2]; in words, compared to the base alone and diphenylethyl fumarate) was “clearly reduces disruption in the epidermal permeability barrier function by UVB” and the Positivity [1] was 0%. The sensitizing potential [1] was “no sensitizing potential”, the “Amount of mRNA, % relative to the control, HB-EGF” value (HB-EGF mRNA; 300 μmol/L) was 380% and the “induction of HB-EGF expression” value (HB-EGF mRNA; in words, 300 μmol/L) was “induced the expression of HB-EGF as strongly as dimethyl fumarate”. The “Amount of mRNA, % relative to the control, G3PDH” value (G3PDH mRNA [3]; 300 μmol/L) was 98%, the “Mean values of the epidermis thickness” value ([4]; 33 weeks old hairless mice, 0.5% in 50% ethanol, 0.05 mL once a day 5 days per week for 4 weeks) was 20.96 μm and the “inhibition of thinning of the epidermis due to aging” value ([4]; in words, compared to the non-treatment) was “thinning of the epidermis due to aging was clearly inhibited”. The “Amount of mRNA, % relative to the control, Amphiregulin” value (amphiregulin mRNA [5]; 300 μmol/L) was 8%, the “Amount of mRNA, % relative to the control, G3PDH” value (G3PDH mRNA [6]; 300 μmol/L) was 102% and the “Mean value of TEWL” value [7, 13] was 0.055 mg/cm^2/min. For the same compound, the “Thickness of the epidermis” value [8] was 61.6 μm.

For CC1=C(/C=C/C(C)=C/C=C/C(C)=C/C(=O)O)C(C)(C)CCC1 [Retinoic acid], the “Amount of mRNA, % relative to the control, Amphiregulin” value (amphiregulin mRNA [9]) was 300%, the “Amount of mRNA, % relative to the control, G3PDH” value (G3PDH mRNA [10]) was 105% and the “Mean value of TEWL” value ([7]; 0.05% retinoic acid once a day for 4 days, base alone instead of the sample (no fumarate)) was 0.110 mg/cm^2/min.

CCOC(=O)/C=C/C(=O)OCC [Diethyl fumarate] was tested, and the Positivity [1] was 90% and the sensitizing potential [1] was “sensitizating potential”.

With COC(=O)/C=C/C(=O)OC [Dimethyl fumarate, reference compound] the “TEWL change rate 3rd day” value [2, 11] was 3.24, the “TEWL change rate 4th day” value [2, 12] was 2.50 and the “Amount of mRNA, % relative to the control, HB-EGF” value (HB-EGF mRNA; 50 μmol/L) was 470%. For the same compound, the “Amount of mRNA, % relative to the control, G3PDH” value (G3PDH mRNA [3]; 50 μmol/L) was 105%, the “Amount of mRNA, % relative to the control, Amphiregulin” value (amphiregulin mRNA [5]; 70 μmol/L) was 39% and the “Amount of mRNA, % relative to the control, G3PDH” value (G3PDH mRNA [6]; 70 μmol/L) was 98%. The “Mean value of TEWL” value [7, 13] was 0.063 mg/cm^2/min and the “Thickness of the epidermis” value [8] was 40.4 μm.
